Test results published in article PMC8741506 (Poultry Science, 2021).

target: T1, IBV PLpro (Avian infectious bronchitis virus (strain M41), UniProt P0C6Y3); test: UB-AMC deubiquitination, fluorescence kinetics; format: biochemical; settings: not given
T1 sequence (P0C6Y3 1177-1499): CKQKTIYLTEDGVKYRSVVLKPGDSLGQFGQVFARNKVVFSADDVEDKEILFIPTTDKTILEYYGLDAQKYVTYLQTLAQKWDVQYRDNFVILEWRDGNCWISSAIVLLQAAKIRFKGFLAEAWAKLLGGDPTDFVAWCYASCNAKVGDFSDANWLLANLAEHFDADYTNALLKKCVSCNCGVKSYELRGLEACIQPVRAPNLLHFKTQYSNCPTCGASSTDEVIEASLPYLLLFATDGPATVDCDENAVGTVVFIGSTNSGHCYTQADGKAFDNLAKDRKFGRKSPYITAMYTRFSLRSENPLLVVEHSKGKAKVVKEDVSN

Compound | IC50 [µM]
O=c1c(O)c(-c2cc(O)c(O)c(O)c2)oc2cc(O)cc(O)c12 [myricetin] | 10.6

target: T1, IBV PLpro; test: UB-AMC deubiquitination, fluorescence kinetics; format: biochemical; settings: read-out: relative enzymatic activity at 100 μM

Compound | activity at 100 µM [%]
C[C@@H]1O[C@@H](O[C@H]2[C@H](Oc3cc(O)c4c(c3)O[C@H](c3ccc(O)cc3)CC4=O)O[C@H](CO)[C@@H](O)[C@@H]2O)[C@H](O)[C@H](O)[C@H]1O [naringin] | < 20
O=c1cc(-c2ccccc2)oc2cc(O)cc(O)c12 [chrysin] | < 20
COc1ccc(-c2oc3c(CC=C(C)C)c(O[C@@H]4O[C@H](CO)[C@@H](O)[C@H](O)[C@H]4O)cc(O)c3c(=O)c2O[C@@H]2O[C@@H](C)[C@H](O)[C@@H](O)[C@H]2O)cc1 [icariin] | < 20
O=c1cc(-c2ccccc2)oc2cc(O)c(O)c(O)c12 [baicalein] | < 20
O=c1c2cc(O)c(O)cc2oc2cc(O)c([C@@H]3O[C@H](CO)[C@@H](O)[C@H](O)[C@H]3O)c(O)c12 [mangiferin] | < 20
